In data set [1] the test system is some paramyxoviruses and pneumoviruses. The following applies: cited from earlier work.
A further data set concerns the target NiV F protein (Nipah virus, UniProt Q9IH63).
Data set [2] deals with pseudotyped NiV/VSV virus (pNiV). It is filed as cell-based, Nipah virus.
The next data set concerns the target NiV G glycoprotein (Nipah virus, UniProt Q9IH62).
In data set [3] the test system is vesicular stomatitis virus (VSV). It is filed as cell-based.
The next data set relates to HSV-1 KOS. The data set is classed as cell-based.
The next data set concerns Influenza virus. The data set is classed as cell-based.
In data set [4] the test system is NiV F and G glycoproteins. The data set is classed as cell-based.
Data set [5] relates to pNiV viral membrane. More on the design: species or system NiV.
For data set [6], the target named is NiV F and NiV G on pseudotyped NiV virions (Nipah virus, UniProt Q9IH62+Q9IH63).
The subject of data set [7] is bovine rotavirus strain NCDV. The data set can be described thus: Rotavirus infection assay in MA104 cells. It is filed as cell-based.
Data set [8] deals with pNiV viral membrane. On the set-up: species or system NiV. This is another data set of the same source.
Data set [9] relates to 293T cells transfected with NiV F and G. The data set is classed as cell-based.
A further data set deals with Vero cells. Put plainly: Cytotoxicity / cell viability assay (CCK-8).
The subject of data set [10] is Human respiratory syncytial virus (RSV A2 strain). The data set can be described thus: Plaque assay for RSV infections. The data set is classed as cell-based.

Data on 6 molecules can be found in US20180271823A1, “SULFUR-BASED BROAD SPECTRUM ANTIVIRALS” (priority 2017, published 2018).

Structures are written as SMILES.

NiV G glycoprotein, sequence (Q9IH62 whole entry, looked up): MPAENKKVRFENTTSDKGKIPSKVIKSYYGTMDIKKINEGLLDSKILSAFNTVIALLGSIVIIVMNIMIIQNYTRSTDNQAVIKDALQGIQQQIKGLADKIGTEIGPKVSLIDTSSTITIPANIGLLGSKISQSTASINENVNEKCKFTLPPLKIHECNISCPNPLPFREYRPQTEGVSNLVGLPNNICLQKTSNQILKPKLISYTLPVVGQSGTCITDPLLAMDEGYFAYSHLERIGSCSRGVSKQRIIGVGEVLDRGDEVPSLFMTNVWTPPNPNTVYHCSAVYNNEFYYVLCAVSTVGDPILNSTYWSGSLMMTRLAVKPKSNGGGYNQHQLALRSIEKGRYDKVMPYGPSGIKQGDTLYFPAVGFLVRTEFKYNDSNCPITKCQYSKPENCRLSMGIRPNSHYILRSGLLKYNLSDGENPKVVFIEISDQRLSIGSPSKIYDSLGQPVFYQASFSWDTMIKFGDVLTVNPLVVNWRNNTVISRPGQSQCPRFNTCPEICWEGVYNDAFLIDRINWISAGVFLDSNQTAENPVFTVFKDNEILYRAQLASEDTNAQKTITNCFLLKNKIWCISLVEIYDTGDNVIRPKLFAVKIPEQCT
NiV F protein, sequence (Q9IH63 110-546 limits assumed): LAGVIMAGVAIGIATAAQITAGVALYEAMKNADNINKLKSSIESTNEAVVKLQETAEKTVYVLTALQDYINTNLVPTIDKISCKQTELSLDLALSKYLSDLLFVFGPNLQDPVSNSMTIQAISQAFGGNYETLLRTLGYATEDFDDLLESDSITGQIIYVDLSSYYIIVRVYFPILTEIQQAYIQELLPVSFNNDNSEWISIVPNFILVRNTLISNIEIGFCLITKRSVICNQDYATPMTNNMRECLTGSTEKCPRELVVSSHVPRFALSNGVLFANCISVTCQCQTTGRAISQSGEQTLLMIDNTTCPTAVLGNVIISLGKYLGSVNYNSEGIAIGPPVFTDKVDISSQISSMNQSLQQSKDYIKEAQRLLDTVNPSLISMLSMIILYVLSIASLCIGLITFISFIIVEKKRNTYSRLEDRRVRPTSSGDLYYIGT
NiV F protein, sequence (Q9IH63 27-109 limits assumed): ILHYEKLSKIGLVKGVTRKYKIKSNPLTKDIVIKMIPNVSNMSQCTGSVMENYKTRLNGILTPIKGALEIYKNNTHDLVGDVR

`C1COCCN1.COc1ccc(P(=S)(S)N2CCOCC2)cc1` (centres unmarked) [GYY4137]: the EC50 in data set [1] is 10000 µM.

As usually defined, the CC50 is the concentration that lowers cell viability or growth by half. Take `COC(=O)C(CSSC(=O)c1ccccc1)NC(=O)c1ccccc1` (centres unmarked) [XM-01]: the NiV-F protein triggering entry at NiV F protein is “not decreased”. In data set [2], the “capability of treated virions to infect Vero cells” value is reported as “highly inhibited”, the “inhibition when added after infection (time of addition)” value was “completely incapable of inhibiting the virus”, the “inhibitory activity in the absence of light” value is “did not need light to inhibit pNiV infections” and the inhibitory properties result was “high inhibitory properties”. For the same molecule, in [2], the “potency as antiviral inhibitor compared with NaHS or GYY4137” value is given as “much more potent” and the “viral infection of pretreated cells” value is given as “did not significantly reduce viral infection”. For the same molecule, in data set [2] (10 μM), the inhibition of infectivity entry is on record as “high inhibition of infectivity”. Also, in data set [2] (read-out: EC50 (inhibitory concentration, pNiV system)), the EC50 was about 1 µM. Moreover, on NiV G glycoprotein, the “ephrinB2 receptor binding ability of NiV G” value was “did not interfere”. In addition, the VSV infection result in data set [3] was “inhibited”. The HSV-1 plaque formation entry with HSV-1 KOS is “inhibit HSV-1 plaque formation in a concentration-dependent fashion”. Moreover, in the data set with Influenza virus, the Influenza virus infection result was “inhibited”. For the same molecule, the “protein G or F expression on cell surfaces” value in data set [4] is “neither XM-01 at 10 μM nor LJ001 at 1 μM significantly affect”. The “ratio of excimer to monomer (membrane fluidity)” value with pNiV viral membrane [5] is on record as “considerably lower ratio of excimers to monomers”. Further, the “glycoprotein conformations (antibody binding to NiV F or NiV G)” value in data set [6] was “no significant changes in antibody binding”. Besides, the non-enveloped rotavirus infection entry in data set [7] is reported as “no significant inhibition”. In the data set on pNiV viral membrane [8], the “RNA spill from virions (TEM)” value is on record as “RNA spilled more frequently” and the “viral membrane appearance (TEM)” value is recorded as “compromised viral membrane”. The “cell to cell fusion” value in [9] is reported as “inhibit cell to cell fusion”. For the same molecule, the cytotoxicity result in the data set with Vero cells (1, 3, and 10 μM) is listed as “low cytotoxicity”. Moreover, the “difference between inhibitory and cytotoxic concentrations” value in the data set on Vero cells (EC50 pNiV vs CC50) is on record as about 3 log. Besides, in the data set with Vero cells (Vero cells, 1 μM-1 mM, calculated using Graphpad Prism), the CC50 is about 1000 µM. Further, the RSV infection entry in data set [10] is on record as “inhibited”.

Turning to `CC(=O)NC(CSSC(=O)c1ccccc1)C(=O)NCc1ccccc1` (centres unmarked) [XM-02], the inhibitory properties result in [2] is “high inhibitory properties”.

For the molecule `COC(=O)C(CSSC(C)=O)NC(=O)c1ccccc1` (centres unmarked) [XM-03], the inhibitory properties result in [2] was “high inhibitory properties”.

Turning to `COC(=O)C(CSC(=O)c1ccccc1)NC(=O)c1ccccc1` (centres unmarked) [XM-10], in [2], the inhibitory properties result is “high inhibitory properties”.

Take `COC(=O)C(CSC(C)=O)NC(=O)c1ccccc1` (centres unmarked) [XM-11]: the inhibitory properties result in data set [2] was “high inhibitory properties”.
